pIC50: −log10 of the molar value. Where a name gives a salt, the structure may show the parent alone.
Columns and labels:
[1] = target: Hsp82 (Saccharomyces cerevisiae, UniProt P02829); test: Hsp82/ATPase test (malachite green or PK/LDH coupled method); type: biochemical; settings: 1 μM Hsp82, 250 μM ATP, 37° C.; read-out: Hsp82 ATPase IC50
Experimental: The biochemical activity of the compounds can in particular be evaluated by means of the “Hsp82/ATPase” test described below: The inorganic phosphate released during the hydrolysis of ATP by the ATPase activity of Hsp82 is quantified by the malachite green method. In the presence of this reagent, formation of the inorganic phosphate-molybdate-malachite green complex, which absorbs at a wavelength of 620 nm, occurs. The products to be evaluated are incubated in a reaction volume of 30 μl, in the presence of 1 μM Hsp82 and of 250 μM of substrate (ATP) in a buffer composed of 50 mM Hepes-NaOH (pH 7.5), 1 mM DTT, 5 mM MgCl2 and 50 mM KCl at 37° C. for 60 min. In parallel, an inorganic phosphate range of between 1 and 40 μM is made up in the same buffer. […] After incubation at ambient temperature for 20 min, the absorbance of the various wells is measured using a microplate reader at 620 nm. The inorganic phosphate concentration of each sample is then calculated from the standard curve. The ATPase activity of Hsp82 is expressed as concentration of inorganic phosphate produced in 60 minutes. The effect of the various products tested is expressed as percentage inhibition of the ATPase activity. The formation of ADP due to the ATPase activity of Hsp82 was used to develop another method for evaluating the enzyme activity of this enzyme by application of an enzymatic coupling system involving pyruvate kinase (PK) and lactate dehydrogenase (LDH). In this kinetic-type spectrophotometric method, PK catalyses the formation of ATP and of pyruvate from phosphoenol pyruvate (PEP) and the ADP produced by Hsp82. The pyruvate formed, which is a substrate for LDH, is subsequently converted to lactate in the presence of NADH. In this case, the decrease in the NADH concentration, measured through the decrease in absorbance at the wavelength of 340 nm, is proportional to the concentration of ADP produced by Hsp82. The products tested are incubated in a reaction volume of 100 μl of buffer composed of 100 mM Hepes-NaOH (pH 7.5), 5 mM MgCl2, 1 mM DTT, 150 mM KCl, 0.3 mM NADH, 2.5 mM PEP and 250 μM ATP. This mixture is preincubated at 37° C. for 30 minutes before the addition of 3.77 units of LDH and 3.77 units of PK. The reaction is initiated by addition of the product to be evaluated, in varying concentrations, and of Hsp82, at the concentration of 1 μM. The enzymatic activity of Hsp82 is then measured continuously, in a microplate reader, at 37° C., at the wavelength of 340 nm. The initial rate of the reaction is obtained by measuring the slope of the tangent to the origin of the curve recorded. The enzymatic activity is expressed in μM of ADP formed per minute. The effect of the various products tested is expressed as percentage inhibition of the ATPase activity according to the codification below: […]

[2] = test system: Her2 receptor expression at the surface of SKBr3 cells; test: phenotypic SKBr3/HER2 cell test (Her2 surface expression by flow cytometry); type: cell-based; settings: Homo sapiens, SK-BR-3, 24 h incubation, inhibition of Her2 expression
Procedure, shortened: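 SKBr3 cells (Her2-overexpressing adenocarcinoma) treated 24 h with compound at varying concentrations, then stained with PE-anti-Her2 antibody 30 min at 4° C; surface Her2 measured by flow cytometry. IC50 from nonlinear fit of % inhibition of Her2 expression versus concentration.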

Chain of Hsp82 (P02829 whole entry): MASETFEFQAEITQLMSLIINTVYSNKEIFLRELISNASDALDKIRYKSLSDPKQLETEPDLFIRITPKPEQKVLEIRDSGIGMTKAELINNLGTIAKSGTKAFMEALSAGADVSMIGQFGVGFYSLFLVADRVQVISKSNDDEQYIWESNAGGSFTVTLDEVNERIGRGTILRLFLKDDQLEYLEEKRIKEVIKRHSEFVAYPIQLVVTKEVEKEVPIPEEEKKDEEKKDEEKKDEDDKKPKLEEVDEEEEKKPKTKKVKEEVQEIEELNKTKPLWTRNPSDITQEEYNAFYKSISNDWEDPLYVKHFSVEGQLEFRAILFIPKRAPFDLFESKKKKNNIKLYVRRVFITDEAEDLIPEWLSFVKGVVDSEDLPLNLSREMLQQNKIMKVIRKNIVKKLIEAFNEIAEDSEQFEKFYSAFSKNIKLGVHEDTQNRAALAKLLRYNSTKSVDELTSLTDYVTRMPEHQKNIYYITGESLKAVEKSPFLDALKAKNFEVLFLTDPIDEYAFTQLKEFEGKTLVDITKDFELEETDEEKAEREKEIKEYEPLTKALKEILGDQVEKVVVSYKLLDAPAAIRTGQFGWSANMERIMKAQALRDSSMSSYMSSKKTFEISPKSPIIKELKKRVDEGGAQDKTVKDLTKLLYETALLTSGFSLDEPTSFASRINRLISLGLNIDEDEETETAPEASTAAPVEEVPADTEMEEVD

Row | Compound | pIC50 [1] | pIC50 [2]
1 | CNC(=O)CNc1cc(-n2c3ccccc3c3c(-c4nc5ccc(F)cc5[nH]4)cccc32)ccc1C(N)=O [Example 44, 4-[4-(6-fluoro-1H-benzimidazol-2-yl)-9H-carbazol-9-yl]-2-(methylcarbamoylmethylamino)benzamide] | 5.00 to 6.00 | > 6.00
2 | NC(=O)c1ccc(-n2c3ccccc3c3c(-c4nc5ccc(F)cc5[nH]4)cccc32)cc1NCc1ccco1 [Example 48, 4-[4-(6-fluoro-1H-benzimidazol-2-yl)-9H-carbazol-9-yl]-2-[(furan-2-ylmethyl)amino]benzamide] | 5.00 to 6.00 | > 6.00
3 | Nc1noc2cc(-n3c4ccccc4c4c(-c5nc6ccc(F)cc6[nH]5)cccc43)ccc12 [Example 13, 6-[4-(6-fluoro-1H-benzimidazol-2-yl)-9H-carbazol-9-yl]-1,2-benzisoxazol-3-ylamine] | 5.00 to 6.00 | 5.00 to 6.00
4 | NC(=O)c1ccc(-n2c3ccccc3c3c(-c4nc5ccc(F)cc5[nH]4)cccc32)cc1NCc1ccn[nH]1 [Example 51, 4-[4-(6-fluoro-1H-benzimidazol-2-yl)-9H-carbazol-9-yl]-2-[(2H-pyrazol-3-ylmethyl)amino]benzamide] | 5.00 to 6.00 | > 6.00
5 | NC(=O)c1ccc(-n2c3ccccc3c3c(-c4nc5ccc(F)cc5[nH]4)cccc32)cc1N[C@H]1CC[C@@H](O)CC1 [Example 9, 4-[4-(6-fluoro-1H-benzimidazol-2-yl)-9H-carbazol-9-yl]-2-(4-cis-hydroxycyclohexylamino)benzamide] | 5.00 to 6.00 | > 6.00
6 | CC(=O)O[C@H]1CC[C@H](Nc2cc(-n3c4ccccc4c4c(-c5nc6ccc(F)cc6[nH]5)cccc43)ccc2C(N)=O)CC1 [Example 5, acetic acid 4-{2-carbamoyl-5-[4-(6-fluoro-1H-benzimidazol-2-yl)-9H-carbazol-9-yl]phenylamino}-trans-cyclohexyl ester] | 5.00 to 6.00 | > 6.00
7 | NC(=O)c1ccc(-n2c3ccccc3c3c(-c4nc5ccc(F)cc5[nH]4)cccc32)cc1NCc1c[nH]cn1 [Example 57, 4-[4-(6-fluoro-1H-benzimidazol-2-yl)-9H-carbazol-9-yl]-2-[(1H-imidazoly-4-yl)methylamino]benzamide] | 5.00 to 6.00 | 5.00 to 6.00
8 | NCCC(=O)O[C@H]1CC[C@H](Nc2cc(-n3c4ccccc4c4c(-c5nc6ccc(F)cc6[nH]5)cccc43)ccc2C(N)=O)CC1 [Example 24, trifluoroacetate of the 4-trans-{2-carbamoyl-5-[4-(6-fluoro-1H-benzimidazol-2-yl)-9H-carbazol-9-yl]phenylamino}cyclohexyl ester of 3-aminopropionic acid] | 5.00 to 6.00 | > 6.00
9 | NC(=O)c1ccc(-n2c3ccccc3c3c(-c4nc5ccc(F)cc5[nH]4)cccc32)nc1 [Example 19, 6-[4-(6-fluoro-1H-benzimidazol-2-yl)carbazol-9-yl]nicotinamide] | 5.00 to 6.00 | 5.00 to 6.00
10 | CCOCCNc1cc(-n2c3ccccc3c3c(-c4nc5ccc(F)cc5[nH]4)cccc32)ccc1C(N)=O [Example 46, 2-(2-ethoxyethylamino)-4-[4-(6-fluoro-1H-benzimidazol-2-yl)-9H-carbazol-9-yl]benzamide] | 5.00 to 6.00 | > 6.00
11 | Nc1nn(CCO)c2cc(-n3c4ccccc4c4c(-c5nc6ccc(F)cc6[nH]5)cccc43)ccc12 [Example 16, 2-{3-amino-6-[4-(6-fluoro-1H-benzimidazol-2-yl)-9H-carbazol-9-yl]indazol-1-yl}ethanol] | 5.00 to 6.00 | 5.00 to 6.00
12 | NC(=O)c1ccc(-n2c3ccccc3c3c(-c4nc5ccc(F)cc5[nH]4)cccc32)cc1F [Example 14, 2-fluoro-4-[4-(6-fluoro-1H-benzimidazol-2-yl)-9H-carbazol-9-yl]benzamide] | 5.00 to 6.00 | > 6.00
13 | NC(=O)c1ccc(-n2c3ccccc3c3c(-c4nc5ccc(F)cc5[nH]4)cccc32)cc1NCc1ccoc1 [Example 50, 4-[4-(6-fluoro-1H-benzimidazol-2-yl)-9H-carbazol-9-yl]-2-[(furan-3-ylmethyl)amino]benzamide] | 5.00 to 6.00 | > 6.00
14 | NC(=O)c1ccc(-n2c3ccccc3c3c(-c4cnc5ccccc5c4)cccc32)cc1 [Example 30, 4-[4-(quinolin-3-yl)-9H-carbazol-9-yl]benzamide] | 5.00 to 6.00 | 5.00 to 6.00

The remaining lines, values ahead:

Row | pIC50 [1] | pIC50 [2] | Compound
15 | > 6.00 | > 6.00 | CN1CCC(O)(CCNc2cc(-n3c4ccccc4c4c(-c5cnc6ccccc6c5)cccc43)ccc2C(N)=O)CC1 [Example 65, 2-[2-(4-hydroxy-1-methylpiperidin-4-yl)ethylamino]-4-[4-(quinolin-3-yl)-9H-carbazol-9-yl]benzamide]
16 | > 6.00 | > 6.00 | C[C@H](N)C(=O)O[C@H]1CC[C@H](Nc2cc(-n3c4ccccc4c4c(-c5nc6ccc(F)cc6[nH]5)cccc43)ccc2C(N)=O)CC1 [Example 26, trifluoroacetate of the 4-trans-{2-carbamoyl-5-[4-(6-fluoro-1H-benzimidazol-2-yl)-9H-carbazol-9-yl]phenylamino}cyclohexyl ester of 2(S)-aminopropionic acid]
17 | > 6.00 | > 6.00 | NC(=O)c1ncc(-n2c3ccccc3c3c(-c4cnc5ccccc5c4)cccc32)cc1N[C@H]1CC[C@H](O)CC1 [Example 58, 3-(4-trans-hydroxycyclohexylamino)-5-[(4-quinolin-3-yl)-9H-carbazol-9-yl]pyridine-2-carboxamide]
18 | > 6.00 | > 6.00 | CC(CCO)Nc1cc(-n2c3ccccc3c3c(-c4nc5ccc(F)cc5[nH]4)cccc32)ccc1C(N)=O (racemic) [Example 39]
19 | > 6.00 | > 6.00 | NC(=O)c1ccc(-n2c3ccccc3c3c(-c4cnc(N)nc4)cccc32)cc1N[C@H]1CC[C@H](O)CC1 [Example 55, 4-[4-(2-aminopyrimidin-5-yl)-9H-carbazol-9-yl]-2-[(4-trans-hydroxycyclohexyl)amino]benzamide hydrochloride]
20 | > 6.00 | > 6.00 | NC(=O)c1ccc(-n2c3ccccc3c3c(-c4cnc5ccccc5c4)cccc32)cc1NCCC1(O)CCCC1 [Example 64]
21 | > 6.00 | > 6.00 | NC(=O)CCNc1cc(-n2c3ccccc3c3c(-c4nc5ccc(F)cc5[nH]4)cccc32)ccc1C(N)=O [Example 47, 2-(2-carbamoylethylamino)-4-[4-(6-fluoro-1H-benzimidazol-2-yl)-9H-carbazol-9-yl]benzamide]
22 | > 6.00 | > 6.00 | COCCCNc1cc(-n2c3ccccc3c3c(-c4cnc5ccccc5c4)cccc32)ccc1C(N)=O [Example 33, 2-(3-methoxypropyl)amino-4-[4-(quinolin-3-yl)-9H-carbazol-9-yl]benzamide]
23 | > 6.00 | > 6.00 | COC[C@H](C)Nc1cc(-n2c3ccccc3c3c(-c4nc5ccc(F)cc5[nH]4)cccc32)ccc1C(N)=O [Example 54]
24 | > 6.00 | > 6.00 | NC(=O)c1ccc(-n2c3ccccc3c3c(-c4nc5ccncc5[nH]4)cccc32)cc1N[C@H]1CC[C@H](O)CC1 [Example 4, 2-(4-trans-hydroxycyclohexylamino)-4-[4-(3H-imidazo[4,5-c]pyridin-2-yl)-9H-carbazol-9-yl]benzamide]
25 | > 6.00 | > 6.00 | NC(=O)c1ccc(-n2c3ccccc3c3c(-c4cnc5ccccc5c4)cccc32)cc1N[C@H]1CC[C@H](O)CC1 [Example 2, 2-(4-trans-hydroxycyclohexylamino)-4-[(4-quinolin-3-yl)-9H-carbazol-9-yl]benzamide]
26 | > 6.00 | > 6.00 | NC(=O)c1ccc(-n2c3ccccc3c3c(-c4cnc5ccccc5c4)cccc32)cc1NCCCO [Example 31, 2-(3-hydroxypropyl)amino-4-[4-(quinolin-3-yl)-9H-carbazol-9-yl]benzamide]

— patent US8309721B2, “HSP90 inhibitory carbazole derivatives, compositions containing same and use thereof” (Sanofi, priority 2008, dated 2012)
